Assay results from PubChem BioAssay AID743115 (Vanderbilt Specialized Chemistry Center, 2013).
The source made the active and inactive calls.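 How the source made its calls: active means response above 60% of the acetylcholine maximum at the M5 muscarinic receptor, read as positive allosteric modulation; inactive means the rest.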

Molecular target: Muscarinic acetylcholine receptor M3 (Homo sapiens) (UniProt P20309)
Assay: ACh potentiation at muscarinic M3 subtype – cell-based, CHO-K1 hM3, calcium flux, ACh EC20, selectivity assay for M5 PAM project, dose response (AID 743115)
Conditions: CHO-K1 hM3, calcium flux Fluo-4, ACh EC20 potentiation; for % ACh max response: at 30 µM (top of the series)

Muscarinic acetylcholine receptor M3 (Homo sapiens), sequence (P20309 whole entry, looked up): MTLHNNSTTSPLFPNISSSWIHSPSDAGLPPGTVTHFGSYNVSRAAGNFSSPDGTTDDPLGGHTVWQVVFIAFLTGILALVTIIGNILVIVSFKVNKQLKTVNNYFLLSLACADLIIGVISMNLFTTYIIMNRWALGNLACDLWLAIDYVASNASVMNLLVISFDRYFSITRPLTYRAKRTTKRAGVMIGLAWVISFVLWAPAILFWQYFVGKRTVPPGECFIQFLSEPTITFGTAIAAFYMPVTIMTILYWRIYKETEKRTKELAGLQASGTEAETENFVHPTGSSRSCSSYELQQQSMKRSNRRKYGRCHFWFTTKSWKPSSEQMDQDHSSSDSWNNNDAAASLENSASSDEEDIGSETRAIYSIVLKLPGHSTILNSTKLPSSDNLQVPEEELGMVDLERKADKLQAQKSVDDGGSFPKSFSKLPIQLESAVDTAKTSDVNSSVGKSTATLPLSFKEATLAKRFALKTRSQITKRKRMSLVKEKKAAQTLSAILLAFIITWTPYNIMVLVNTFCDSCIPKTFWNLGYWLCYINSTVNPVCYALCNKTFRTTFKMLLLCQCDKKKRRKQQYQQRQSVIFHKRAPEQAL

% ACh max response | EC50 [µM] | SMILES
inactive |  | CCN(C(=O)C1CCN(S(=O)(=O)c2ccc(OC)cc2)CC1)[C@H](C)c1ccccc1
 | 2.17 | CCN(C(=O)C1CCN(S(=O)(=O)c2ccc3[nH]ncc3c2)CC1)[C@H](C)c1ccccc1
 | 4.67 | CCN(Cc1ccccc1C(F)(F)F)C(=O)C1CCN(S(=O)(=O)c2ccc3cn[nH]c3c2)CC1
 | 2.89 | CCN(Cc1ccccc1Cl)C(=O)C1CCN(S(=O)(=O)c2ccc3cn[nH]c3c2)CC1
 | 2.08 | CCN(Cc1ccccc1C(F)(F)F)C(=O)C1CCN(S(=O)(=O)c2ccc3[nH]ncc3c2)CC1
inactive |  | CCN(Cc1ccccc1)C(=O)C1CCN(S(=O)(=O)c2ccc(OC)cc2)CC1
inactive |  | CCN(Cc1ccccc1)C(=O)C1CCN(S(=O)(=O)c2ccc3c(c2)OCCO3)CC1
 | 1.77 | CCN(Cc1ccccc1C(F)(F)F)C(=O)C1(F)CCN(S(=O)(=O)c2ccc3[nH]ncc3c2)CC1
 | 0.52 | CCN(Cc1ccccc1Cl)C(=O)C1CCN(S(=O)(=O)c2ccc3[nH]ncc3c2)CC1
